From PubChem BioAssay AID330 (DTP/NCI, 2004)
“And” between values parts separate entries of the source, which are not always exact repeats. Identical values can stand only once. Inconclusive results and toxic doses are left out. How the source made its calls: active means survival T/C of 150% or more; inactive means T/C below 125% in these data.

System: P388 leukemia ip, CD2F1 mice, survival T/C
Assay: NCI In Vivo Anticancer Drug Screen. Data for tumor model P388 Leukemia (intraperitoneal) in CD2F1 (CDF1) mice
Details: endpoint: median survival time, higher = longer survival
Procedure, shortened: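 Mice carrying the transplanted tumor received test compound or vehicle. Survival was recorded in each group, and the value is the treated-group measurement divided by that of the vehicle-treated control group.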

[1] = dose: 60.0 mg/kg/injection, schedule: Q01DX005 (ip), vehicle: saline
[2] = dose: 50.0 mg/kg/injection, schedule: Q01DX005 (ip), vehicle: saline with Tween-80
[3] = dose: 100.0 mg/kg/injection, schedule: Q01DX005 (ip), vehicle: saline with Tween-80
[4] = dose: 200.0 mg/kg/injection, schedule: Q01DX005 (ip), vehicle: saline with Tween-80
[5] = dose: 50.0 mg/kg/injection, schedule: Q01DX005 (ip), vehicle: Klucel (hydroxypropylcellulose) (HPC)
[6] = dose: 100.0 mg/kg/injection, schedule: Q01DX005 (ip), vehicle: Klucel (hydroxypropylcellulose) (HPC)
[7] = dose: 200.0 mg/kg/injection, schedule: Q01DX005 (ip), vehicle: Klucel (hydroxypropylcellulose) (HPC)
[8] = dose: 50.0 mg/kg/injection, schedule: Q01DX009 (ip), vehicle: saline with Tween-80
[9] = dose: 100.0 mg/kg/injection, schedule: Q04DX003 (ip), vehicle: saline with Tween-80
[10] = dose: 200.0 mg/kg/injection, schedule: Q01DX009 (ip), vehicle: saline with Tween-80
[11] = dose: 200.0 mg/kg/injection, schedule: Q04DX003 (ip), vehicle: saline with Tween-80
[12] = dose: 100.0 mg/kg/injection, schedule: Q01DX009 (ip), vehicle: saline with Tween-80
[13] = dose: 50.0 mg/kg/injection, schedule: Q01DX009 (ip), vehicle: Klucel (hydroxypropylcellulose) (HPC)
[14] = dose: 100.0 mg/kg/injection, schedule: Q01DX009 (ip), vehicle: Klucel (hydroxypropylcellulose) (HPC)
[15] = dose: 200.0 mg/kg/injection, schedule: Q01DX009 (ip), vehicle: Klucel (hydroxypropylcellulose) (HPC)
[16] = dose: 60.0 mg/kg/injection, schedule: Q01DX005 (ip), vehicle: Klucel (hydroxypropylcellulose) (HPC)
[17] = dose: 120.0 mg/kg/injection, schedule: Q01DX005 (ip), vehicle: Klucel (hydroxypropylcellulose) (HPC)
[18] = dose: 50.0 mg/kg/injection, schedule: Q04DX002 (ip), vehicle: saline with Tween-80
[19] = dose: 100.0 mg/kg/injection, schedule: Q04DX002 (ip), vehicle: saline with Tween-80

Measured: T/C

O=C(/C=C/c1ccccc1)CC1=NC2NN(c3ccccc3)C(=O)C2=C1CC(=O)/C=C/c1ccccc1 (stereo not drawn)
inactive: dose: 60.0 mg/kg/injection, schedule: Q01DX005 (ip), vehicle: suspension in saline 95 % of control | dose: 120.0 mg/kg/injection, schedule: Q01DX005 (ip), vehicle: suspension in saline 99 % of control | dose: 240.0 mg/kg/injection, schedule: Q01DX005 (ip), vehicle: suspension in saline 107 % of control

O=C(CC(O)c1cccnc1)CC(O)c1cccnc1 (stereo not drawn)
inactive: [1] 100 % of control | dose: 120.0 mg/kg/injection, schedule: Q01DX005 (ip), vehicle: saline 114 % of control | dose: 240.0 mg/kg/injection, schedule: Q01DX005 (ip), vehicle: saline 114 % of control

C=CCOc1cc2c(cc1C(C)c1ccc(OCC)c(C)c1)OCO2 (stereo not drawn)
inactive: [2] 106 % of control | [3] 103 % of control | [4] 106 % of control

CC1=CCC(=O)O1
inactive: dose: 50.0 mg/kg/injection, schedule: Q01DX009 (ip), vehicle: suspension in saline 100 % of control | dose: 100.0 mg/kg/injection, schedule: Q01DX009 (ip), vehicle: suspension in saline 99 % of control and 88 % of control | dose: 200.0 mg/kg/injection, schedule: Q01DX009 (ip), vehicle: suspension in saline 101 % of control and 87 % of control | dose: 400.0 mg/kg/injection, schedule: Q01DX009 (ip), vehicle: suspension in saline 98 % of control and 101 % of control

O=C1C=C2CCCCCCCCCC(C1)C2 (stereo not drawn)
inactive: [5] 99 % of control | [6] 99 % of control | [7] 89 % of control

Cc1ccc(NC(=O)N(CCCCl)N=O)cc1
inactive: [8] 86 % of control | [9] 95 % of control | [10] 100 % of control | [11] 90 % of control

CCOC(=O)C1CC(=O)C1C(=O)OCC (stereo not drawn)
inactive: dose: 12.5 mg/kg/injection, schedule: Q01DX009 (ip), vehicle: saline with Tween-80 104 % of control | dose: 25.0 mg/kg/injection, schedule: Q01DX009 (ip), vehicle: saline with Tween-80 103 % of control | [8] 100 % of control | [12] 100 % of control | [10] 101 % of control

Nc1cccnc1
inactive: dose: 5.0 mg/kg/injection, schedule: Q04DX003 (ip), vehicle: saline 100 % of control | dose: 10.0 mg/kg/injection, schedule: Q04DX003 (ip), vehicle: saline 100 % of control | dose: 20.0 mg/kg/injection, schedule: Q04DX003 (ip), vehicle: saline 100 % of control

O=C(O)C[P+](Cc1ccccc1)(c1ccccc1)c1ccccc1
inactive: dose: 25.0 mg/kg/injection, schedule: Q01DX009 (ip), vehicle: Klucel (hydroxypropylcellulose) (HPC) 97 % of control | [13] 102 % of control and 113 % of control | [14] 101 % of control and 103 % of control | [15] 95 % of control

O=C(O)C1C(CCl)=C1CCl
inactive: [16] 100 % of control | [17] 104 % of control

Nc1nc(N)c2cc(S(=O)(=O)c3ccc(Cl)cc3)ccc2n1
inactive: [8] 100 % of control | [12] 98 % of control | [10] 97 % of control

C/C(=C\c1ccc([N+](=O)[O-])cc1)C(=O)N1CCCCC1
inactive: [5] 105 % of control | [6] 96 % of control | [7] 96 % of control

Cc1ccccc1NC(CCl)=NC(C)(C)C
inactive: [9] 98 % of control | [11] 107 % of control | dose: 400.0 mg/kg/injection, schedule: Q04DX003 (ip), vehicle: saline with Tween-80 104 % of control

Cc1snnc1-c1ccccc1
inactive: [5] 105 % of control | [6] 105 % of control | [7] 96 % of control

O=C1C=C(CCC2=CC(=O)c3ccccc3C2=O)C(=O)c2ccccc21
inactive: dose: 60.0 mg/kg/injection, schedule: Q01DX005 (ip), vehicle: saline with Tween-80 100 % of control | dose: 120.0 mg/kg/injection, schedule: Q01DX005 (ip), vehicle: saline with Tween-80 94 % of control

c1ccc2c(c1)-c1cc3ccc4ccccc4c3nc1C1OC21 (stereo not drawn)
inactive: dose: 25.0 mg/kg/injection, schedule: Q04DX002 (ip), vehicle: saline with Tween-80 105 % of control | [18] 99 % of control | [19] 100 % of control

CC1(C)CCC2(C(=O)O)CCC3(C)C(=CCC4C5(C)CC(O)C(O)C(C)(C(=O)O)C5CCC43C)C2C1 (stereo not drawn)
inactive: dose: 1.0 mg/kg/injection, schedule: Q01DX005 (ip), vehicle: saline 96 % of control | dose: 2.03 mg/kg/injection, schedule: Q01DX005 (ip), vehicle: saline 94 % of control | dose: 4.06 mg/kg/injection, schedule: Q01DX005 (ip), vehicle: saline 87 % of control | dose: 8.12 mg/kg/injection, schedule: Q01DX005 (ip), vehicle: saline 90 % of control

Nc1ncnc2c1ncn2C(/C=N/Nc1ccccc1)OC(/C=N\Nc1ccccc1)CO (stereo not drawn)
inactive: [2] 106 % of control | [3] 106 % of control | [4] 107 % of control

CC(C)(C)OC(=O)NC(CC(Cc1ccccc1)C(=O)O)C(=O)NC(CC(Cc1ccccc1)C(=O)O)C(=O)NC(CC(Cc1ccccc1)C(=O)O)C(=O)NCC(=O)Oc1ccc([N+](=O)[O-])cc1 (stereo not drawn)
inactive: dose: 12.5 mg/kg/injection, schedule: Q01DX005 (ip), vehicle: saline with Tween-80 99 % of control | dose: 25.0 mg/kg/injection, schedule: Q01DX005 (ip), vehicle: saline with Tween-80 91 % of control | [2] 89 % of control

C=CCSc1nc2ccc(N=Cc3ccccc3O)cc2s1
inactive: dose: 100.0 mg/kg/injection, schedule: Q04DX003 (ip), vehicle: Klucel (hydroxypropylcellulose) (HPC) 88 % of control | dose: 200.0 mg/kg/injection, schedule: Q04DX003 (ip), vehicle: Klucel (hydroxypropylcellulose) (HPC) 91 % of control | dose: 400.0 mg/kg/injection, schedule: Q04DX003 (ip), vehicle: Klucel (hydroxypropylcellulose) (HPC) 92 % of control

O=C(O)CNC(=O)/C=C/c1ccc(O)c(O)c1
inactive: [5] 114 % of control | [6] 100 % of control | [7] 100 % of control

CCCCCC(CN(C)C)/C(CC(NO)c1ccccc1)=N\O (stereo not drawn)
inactive: [13] 106 % of control | [14] 106 % of control

CCOC(=O)c1ccc(NC(CCN2CCN(CCC(=NC(C)(C)C)Nc3ccc(C(=O)OCC)cc3)CC2)=NC(C)(C)C)cc1
inactive: [13] 96 % of control | [14] 92 % of control | [15] 90 % of control

O=C1C=C(C2=C(O)c3ccccc3C2=O)c2ccccc21 (tested in a mixture with another compound)
inactive: [13] 105 % of control | [14] 105 % of control

O=c1cccc2c3ccccc3ccn12
inactive: [16] 91 % of control | [17] 95 % of control

CCS1=C2C(=O)CCCC2=Nc2ccccc21 (stereo not drawn)
inactive: dose: 15.0 mg/kg/injection, schedule: Q01DX005 (ip), vehicle: saline 100 % of control | dose: 30.0 mg/kg/injection, schedule: Q01DX005 (ip), vehicle: saline 104 % of control | dose: 50.0 mg/kg/injection, schedule: Q01DX005 (ip), vehicle: saline 99 % of control | [1] 92 % of control

COc1ccc(C2(c3ccc(OC)cc3)N=C(n3nc(C)cc3C)NC2=O)cc1
inactive: [18] 94 % of control | [19] 98 % of control | dose: 200.0 mg/kg/injection, schedule: Q04DX002 (ip), vehicle: saline with Tween-80 94 % of control
